In patent US9006194B2, “Compositions and methods for diminishing viral infection and inflammation associated with viral infection” (Drexel University, priority 2008, dated 2015):

Tested on: CD4+ and CD8+ T cells
Assay: Apoptosis assay of primary human CD4+ and CD8+ T lymphocytes exposed to Type 1 interferon (CD95/Fas-induced, Annexin V)
Details: 5 ng/mL for 72 hours, resting or anti-CD3 activated T cells, n=5 healthy donors
Description: T cells were activated with anti-CD3 antibody. n=5 healthy donors for each group.
Primary human PBMC were isolated were isolated by density centrifugation using Ficoll from heparinized venous blood of HIV-1-seronegative adult donors and seeded into 24-well plates at a concentration of 1×10^6 cells/mL/well. Freshly isolated PBMC were treated with 5 ng/mL recombinant IFN-α (PBL Interferon Source; Piscataway, N.J.) in the presence or absence of monoclonal anti-CD3 antibody (OKT3). Anti-CD3 was immobilized by coating plates with 0.1 μg/mL in PBS for 2 hours. Following a 3 day incubation period, PBMC were harvested and transferred to 24-well plates that were uncoated or coated with 5 μg/mL monoclonal anti-CD95 antibody (IgM, CH11; Immunotech, Brea, Calif.) for 14 hour at 37° C. in 5% CO2. Cells were subsequently harvested, counted and stained for flow cytometry analysis. The following combinations of mAb were used to identify CD4+ and CD8+ T cell subpopulations: anti-CD3-PE/anti-CD4-APC/anti-CD8-PerCP; and for the apoptosis studies: Annexin V-Cy5.5 (eBioscience, San Diego, Calif.). One million cells were stained as previously described (Mueller Y M et al., 2001, Immunity. 15:871-882) with the combination of antibodies in HBSS (Cellgro, Herndon, Va.), 3% FBS, 0.02% NaN3 for 15 min on ice, washed twice with HBSS, 3% FBS, 0.02% NaN3 and fixed with 1% paraformaldehyde. […]

Substance: IFN-α
- CD95/Fas-induced apoptosis of T cells (in words): increase
